Data as given in patent publication US12162890B2 (Novartis AG, priority 2015, dated 2024).

Each compound was assayed against HEK293 cells with stable expression of the GRIN1 gene and tetracycline-inducible expression of the GRIN2B gene (NMDA receptor, NR2B) (Homo sapiens, UniProt Q13224) (assay: Fluo-8 Ca2+ flux assay: reversal of Ro 25-6981-mediated suppression of the Ca2+ response to co-agonist (glutamate/glycine)). Conditions: reversal of the Ro 25-6981 suppression of the Ca2+ response to co-agonist (glutamate/glycine).
HEK293 cells with stable expression of the GRIN1 gene and tetracycline-inducible expression of the GRIN2B gene (NMDA receptor, NR2B), sequence (Q13224 27-1484, other chains not shown): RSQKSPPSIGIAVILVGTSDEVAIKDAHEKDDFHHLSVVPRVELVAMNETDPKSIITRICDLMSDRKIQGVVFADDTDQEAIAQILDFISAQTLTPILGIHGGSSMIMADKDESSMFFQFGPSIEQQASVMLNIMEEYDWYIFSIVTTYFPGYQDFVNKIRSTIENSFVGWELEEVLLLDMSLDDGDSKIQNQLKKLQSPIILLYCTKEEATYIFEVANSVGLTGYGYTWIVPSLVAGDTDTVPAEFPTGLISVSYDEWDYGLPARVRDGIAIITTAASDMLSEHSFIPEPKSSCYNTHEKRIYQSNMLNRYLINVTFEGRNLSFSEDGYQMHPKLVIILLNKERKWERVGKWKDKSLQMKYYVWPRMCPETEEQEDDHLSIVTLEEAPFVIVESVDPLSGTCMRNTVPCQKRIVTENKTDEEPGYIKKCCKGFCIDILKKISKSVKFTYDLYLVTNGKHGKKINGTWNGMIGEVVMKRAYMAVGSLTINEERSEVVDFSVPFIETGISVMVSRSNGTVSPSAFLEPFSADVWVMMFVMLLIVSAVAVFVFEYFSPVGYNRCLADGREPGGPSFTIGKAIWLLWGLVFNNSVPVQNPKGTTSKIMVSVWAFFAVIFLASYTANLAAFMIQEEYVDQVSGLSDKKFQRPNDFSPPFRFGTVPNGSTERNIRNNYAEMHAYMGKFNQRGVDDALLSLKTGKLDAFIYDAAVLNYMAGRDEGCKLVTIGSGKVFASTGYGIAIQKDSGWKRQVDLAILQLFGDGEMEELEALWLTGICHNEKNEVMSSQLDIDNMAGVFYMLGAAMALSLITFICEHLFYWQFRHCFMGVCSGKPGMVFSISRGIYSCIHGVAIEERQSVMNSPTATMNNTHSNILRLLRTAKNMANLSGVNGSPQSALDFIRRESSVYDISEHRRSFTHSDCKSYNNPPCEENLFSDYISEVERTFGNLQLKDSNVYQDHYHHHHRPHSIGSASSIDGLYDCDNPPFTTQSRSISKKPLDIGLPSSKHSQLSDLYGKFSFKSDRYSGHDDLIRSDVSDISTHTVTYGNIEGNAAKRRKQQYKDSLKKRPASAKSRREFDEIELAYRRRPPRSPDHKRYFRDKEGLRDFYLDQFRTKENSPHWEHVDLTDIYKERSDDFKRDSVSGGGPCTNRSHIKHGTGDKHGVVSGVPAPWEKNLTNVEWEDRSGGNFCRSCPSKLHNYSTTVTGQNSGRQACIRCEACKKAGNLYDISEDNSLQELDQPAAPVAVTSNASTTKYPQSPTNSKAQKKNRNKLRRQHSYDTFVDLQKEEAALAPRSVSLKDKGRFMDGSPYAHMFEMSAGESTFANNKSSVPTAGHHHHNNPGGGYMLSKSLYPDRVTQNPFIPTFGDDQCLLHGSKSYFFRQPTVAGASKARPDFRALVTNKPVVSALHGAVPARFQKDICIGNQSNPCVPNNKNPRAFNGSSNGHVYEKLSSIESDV
Type: cell-based
Also: test concentration or dose not given here.

| Compound | Response Recovered (%) |
| --- | --- |
| COC1CN(C(=O)Cn2cnc3csc(-c4ccc(Cl)cc4)c3c2=O)C1 [Example 351, 5-(4-chlorophenyl)-3-(2-(3-methoxyazetidin-1-yl)-2-oxoethyl)thieno[3,4-d]pyrimidin-4(3H)-one] | 1% |
| O=C(Cn1cnc2[nH]cc(-c3ccc(Cl)c(F)c3)c2c1=O)N1CCCC1 [Example 164, 5-(4-chloro-3-fluorophenyl)-3-(2-oxo-2-(pyrrolidin-1-yl)ethyl)-3H-pyrrolo[2,3-d]pyrimidin-4(7H)-one] | 48% |
| O=C(Cn1cnc2csc(-c3ccc(Cl)cc3)c2c1=O)N1CCCC1 [Example 345, 5-(4-chlorophenyl)-3-(2-oxo-2-(pyrrolidin-1-yl)ethyl)thieno[3,4-d]pyrimidin-4(3H)-one] | 18% |
| Cn1cnc(-n2cc(-c3ccc(Cl)c(Cl)c3)c3c(=O)n(CC(=O)N4CC(C)(F)C4)ccc32)n1 [Example 270, 3-(3,4-dichlorophenyl)-5-(2-(3-fluoro-3-methylazetidin-1-yl)-2-oxoethyl)-1-(1-methyl-1H-1,2,4-triazol-3-yl)-1H-pyrrolo[3,2-c]pyridin-4(5H)-one] | 130% |
| O=C(Cn1cnc2ccn(-c3ccc(Cl)cc3)c2c1=O)N1CCCCC1 [Example 377, 5-(4-chlorophenyl)-3-(2-oxo-2-(piperidin-1-yl)ethyl)-3H-pyrrolo[3,2-d]pyrimidin-4(5H)-one] | 1% |
| Cn1cc(-c2ccc(Cl)c(C(F)(F)F)c2)c2c(=O)n(CC(=O)N3CCCC3)cnc21 [Example 158, 5-(4-chloro-3-(trifluoromethyl)phenyl)-7-methyl-3-(2-oxo-2-(pyrrolidin-1-yl)ethyl)-3H-pyrrolo[2,3-d]pyrimidin-4(7H)-one] | 72% |
| O=C(Cn1nnc2scc(-c3ccc(Cl)c(C(F)(F)F)c3)c2c1=O)N1CCCC1C(F)(F)F (stereo not shown) [Example 334, 5-(4-chloro-3-(trifluoromethyl)phenyl)-3-(2-oxo-2-(2-(trifluoromethyl)pyrrolidin-1-yl)ethyl)thieno[2,3-d][1,2,3]triazin-4(3H)-one] | 2% |

The remaining lines, values ahead:

| Response Recovered (%) | Compound |
| --- | --- |
| 22% | O=C(Cn1ccc2scc(-c3cnc(F)c(Cl)c3)c2c1=O)N1CCC(F)C1 (stereo not shown) [Example 37, 3-(5-chloro-6-fluoropyridin-3-yl)-5-(2-(3-fluoropyrrolidin-1-yl)-2-oxoethyl)thieno[3,2-c]pyridin-4(5H)-one] |
| 23% | O=C(Cn1ccc2ncc(-c3ccc(F)c(Cl)c3)n2c1=O)N1CCC(F)C1 (stereo not shown) [Example 451, 3-(3-chloro-4-fluorophenyl)-6-(2-(3-fluoropyrrolidin-1-yl)-2-oxoethyl)imidazo[1,2-c]pyrimidin-5(6H)-one] |
| 58% | O=C(Cn1ccn2ccc(-c3ccc(Cl)c(Cl)c3)c2c1=O)N1CCC(F)C1 (stereo not shown) [Example 395, 8-(3,4-dichlorophenyl)-2-(2-(3-fluoropyrrolidin-1-yl)-2-oxoethyl)pyrrolo[1,2-a]pyrazin-1(2H)-one] |
| 49% | O=C(Cn1ccc2scc(-c3ccc(Cl)c(F)c3)c2c1=O)N1CCC(F)C1 (stereo not shown) [Example 7, 3-(4-chloro-3-fluorophenyl)-5-(2-(3-fluoropyrrolidin-1-yl)-2-oxoethyl)thieno[3,2-c]pyridin-4(5H)-one] |
| 120% | O=C(Cn1ccn2c(C3CC3)nc(-c3ccc(F)c(Cl)c3)c2c1=O)N1CC(F)(CF)C1 [Example 439, 1-(3-chloro-4-fluorophenyl)-3-cyclopropyl-7-(2-(3-fluoro-3-(fluoromethyl)azetidin-1-yl)-2-oxoethyl)imidazo[1,5-a]pyrazin-8(7H)-one] |
| 120% | Cc1cc(-c2nc(C3CC3)n3ccn(CC(=O)N4CC(C)(F)C4)c(=O)c23)ccc1Cl [Example 443, 1-(4-chloro-3-methylphenyl)-3-cyclopropyl-7-(2-(3-fluoro-3-methylazetidin-1-yl)-2-oxoethyl)imidazo[1,5-a]pyrazin-8(7H)-one] |
